Laboratory results taken from patent publication US12240844B2 (Voronoi, Inc., priority 2019, dated 2025).

What was measured:
[1] = target: T1, human GST-DYRK1A (full length) (Homo sapiens, UniProt Q13627); assay: GST-DYRK1A enzyme inhibition, ADP-Glo kinase assay; assay type: biochemical; settings: read-out: DYRK1 IC50
T1 construct: purified human GST-DYRK1A (full length, Thermo scientifics) enzyme; GST; purchased Thermo scientifics
Summary of the method: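 Full-length human GST-DYRK1A (10 ng) incubated with 10 uM ATP and specific substrate for 1 h at 25° C in 40 mM Tris-HCl pH 7.4, 20 mM MgCl2, 0.5 mg/mL BSA, 50 uM DTT. ADP formation read by ADP-Glo luminescence; IC50 (nM) versus solvent control, triplicate.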

[2] = target: LRRK2 (Homo sapiens, UniProt Q5S007); assay: LRRK2 enzyme inhibition, ADP-Glo kinase assay; assay type: biochemical; design: purchased Invitrogen PR8604B
Summary of the method: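 Purified human LRRK2 (25 ng) in 40 mM Tris-HCl pH7.4, 20 mM MgCl2, 0.5 mg/ml BSA, 50 μM DTT with 10 μM ATP and substrate ([…]), 2 h at 25° C. Final compound 50 to 0.000001024 μM, 12-point dilution. ADP-Glo luminescence vs solvent control; IC50 (nM).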

[3] = target: LRRK2 (G2019S) (Homo sapiens, UniProt Q5S007, G2019S); assay: LRRK2 G2019S enzyme inhibition, ADP-Glo kinase assay; assay type: biochemical; design: purchased SignalChem L10-12GG
Summary of the method: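 Purified human LRRK2 G2019S (16 ng) with 25 μM ATP and 0.2 μg substrate, 2 h at 25° C in 40 mM Tris-HCl pH 7.4, 20 mM MgCl2, 0.5 mg/ml BSA, 50 μM DTT; compound at 12 final concentrations from 50 μM downward. ADP-Glo luminescence versus solvent control gave IC50 (nM).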

[4] = test system: TNF-α; assay: TNF-α secretion inhibition in LPS-treated THP-1 cells (ELISA); assay type: cell-based; settings: Homo sapiens, compound 0.5 μM, LPS 500 ng/ml, 24 hours, read-out: THP-1/TNF-a (% inhib)
Experimental: (§1) In order to evaluate the cytokine secretion inhibitory efficacy of mononuclear cells, THP-1 cells (ATCC, #TIB-202) as a human-derived monocyte cell line were cultured in RPMI-1640 (Hyclone, SH30027.01) media in which 10% fetal bovine serum (Hyclone, SH30084.03), 1% penicillin streptomycin (Welgene, LS202-02) and 50 μM 2-Mercaptoethanol (Gibco, #21985023) were contained. In the test, 1.5-2×10^5 cells/250 μl per each well were dispensed in a 48-well plate (SPL, #30048) and incubated in an incubator at 37° C. and 5% CO2 for 16 hours, and then the compounds were diluted in DMSO so that the final concentration was 0.5 μM. It was treated with Lipopolysaccharides (LPS) (sigma, #L6529) […]. After treatment with the compound, the LPS was treated so that the final concentration was 500 ng/ml, and then the cell culture fluid was collected after culturing for 24 hours, and the degrees of the cytokines IL-6 (R&D system, #D6050) and TNF-α (R&D system, #DTA00D) contained in the culture fluid were collected using each ELISA kit. After performing the experiment according to the manufacturer's instructions, the absorbance at 450 nm was measured and analyzed using a microplate reader.

[5] = target: T2, human GST-CLK1 (129-end) (Homo sapiens, UniProt P49759); assay: GST-CLK1 enzyme inhibition, ADP-Glo kinase assay; assay type: biochemical; settings: ATP 10 uM
T2 construct: purified human GST-CLK1 (129-end, Signalchem) enzyme; GST; purchased Signalchem
Summary of the method: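 GST-CLK1 (129-end, 3 ng) reacted with 10 uM ATP and substrate in 40 mM Tris-HCl pH 7.4, 20 mM MgCl2, 0.5 mg/mL BSA, 50 uM DTT, 1 h at 25° C. ADP-Glo luminescence normalised to solvent control; IC50 from triplicate data.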

[6] = test system: IL-6; assay: IL-6 secretion inhibition in LPS-treated THP-1 cells (ELISA); assay type: cell-based; settings: Homo sapiens, compound 0.5 μM, LPS 500 ng/ml, 24 hours, read-out: THP1/IL6 (% inhib)
Experimental: as §1

[7] = target: T3, LRRK2, LRRK2 (G2019S), DYRK1, CLK1 and TTK kinases (Homo sapiens, UniProt Q13627); assay: Enzyme IC50 by Kinase HotSpot service (Reaction Biology Corporation), values marked with *; assay type: biochemical; settings: DYRK1, ATP 10 uM
T3 construct: other: DYRK1; Kinase HotSpot service (Reaction Biology), ATP 10 uM
Experimental: Meanwhile, the enzyme IC50 measurement for some compounds was performed using Kinase HotSpot service (Reaction Biology Corporation); during the test, the ATP concentration was 10 uM, where all were conducted under the same condition; and the concentration of the compound was measured by giving a 3-fold concentration gradient with the highest concentration of […], where the values measured using Kinase HotSpot service (Reaction Biology Corporation) were marked with “*”.
All experimental methods were performed as provided in Kinase HotSpot Customer Protocol (http://www.reactionbiology.com//Kinase_Assay_Protocol).
In the table below, the following designations were used for the evaluation of enzyme inhibitory ability.

[8] = test system: MDA-MB-231 cell line; assay: MDA-MB-231 cancer cell proliferation inhibition (Cell Titer-Glo); assay type: cell-based; settings: Homo sapiens, MDA-MB-231 triple-negative breast cancer cell line, 72 hours
Summary of the method: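 GI50 comes from CellTiter-Glo luminescence, read 10 min after reagent addition at RT, following 72 h compound treatment. Eleven concentrations were used (⅓ steps, highest 10 μM final) on 2000 cells/well. MDA-MB-231 and MDA-MB-468 were grown in DMEM, SHP-77 in RPMI.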

[9] = test system: human DYRK1A and Tau; assay: Tau phosphorylation inhibition, ClariCELL Kinase Cell-Based Assay (Carnabio)
Experimental: Tau phosphorylation inhibitory efficacy was measured using the ClariCELL™ Kinase Cell-Based Assay service of Carnabio, located in the United States. The compounds are exposed to human embryonic kidney ([…]) cells transiently expressing human DYRK1A and Tau, and then the cells are lysed to release cellular proteins. At this time, the released Tau is captured on a plate, and the degree of phosphorylation is quantified by ELISA using an antibody specific for Tau phosphorylation.

Sequence of LRRK2 (Q5S007 970-2527 limits assumed): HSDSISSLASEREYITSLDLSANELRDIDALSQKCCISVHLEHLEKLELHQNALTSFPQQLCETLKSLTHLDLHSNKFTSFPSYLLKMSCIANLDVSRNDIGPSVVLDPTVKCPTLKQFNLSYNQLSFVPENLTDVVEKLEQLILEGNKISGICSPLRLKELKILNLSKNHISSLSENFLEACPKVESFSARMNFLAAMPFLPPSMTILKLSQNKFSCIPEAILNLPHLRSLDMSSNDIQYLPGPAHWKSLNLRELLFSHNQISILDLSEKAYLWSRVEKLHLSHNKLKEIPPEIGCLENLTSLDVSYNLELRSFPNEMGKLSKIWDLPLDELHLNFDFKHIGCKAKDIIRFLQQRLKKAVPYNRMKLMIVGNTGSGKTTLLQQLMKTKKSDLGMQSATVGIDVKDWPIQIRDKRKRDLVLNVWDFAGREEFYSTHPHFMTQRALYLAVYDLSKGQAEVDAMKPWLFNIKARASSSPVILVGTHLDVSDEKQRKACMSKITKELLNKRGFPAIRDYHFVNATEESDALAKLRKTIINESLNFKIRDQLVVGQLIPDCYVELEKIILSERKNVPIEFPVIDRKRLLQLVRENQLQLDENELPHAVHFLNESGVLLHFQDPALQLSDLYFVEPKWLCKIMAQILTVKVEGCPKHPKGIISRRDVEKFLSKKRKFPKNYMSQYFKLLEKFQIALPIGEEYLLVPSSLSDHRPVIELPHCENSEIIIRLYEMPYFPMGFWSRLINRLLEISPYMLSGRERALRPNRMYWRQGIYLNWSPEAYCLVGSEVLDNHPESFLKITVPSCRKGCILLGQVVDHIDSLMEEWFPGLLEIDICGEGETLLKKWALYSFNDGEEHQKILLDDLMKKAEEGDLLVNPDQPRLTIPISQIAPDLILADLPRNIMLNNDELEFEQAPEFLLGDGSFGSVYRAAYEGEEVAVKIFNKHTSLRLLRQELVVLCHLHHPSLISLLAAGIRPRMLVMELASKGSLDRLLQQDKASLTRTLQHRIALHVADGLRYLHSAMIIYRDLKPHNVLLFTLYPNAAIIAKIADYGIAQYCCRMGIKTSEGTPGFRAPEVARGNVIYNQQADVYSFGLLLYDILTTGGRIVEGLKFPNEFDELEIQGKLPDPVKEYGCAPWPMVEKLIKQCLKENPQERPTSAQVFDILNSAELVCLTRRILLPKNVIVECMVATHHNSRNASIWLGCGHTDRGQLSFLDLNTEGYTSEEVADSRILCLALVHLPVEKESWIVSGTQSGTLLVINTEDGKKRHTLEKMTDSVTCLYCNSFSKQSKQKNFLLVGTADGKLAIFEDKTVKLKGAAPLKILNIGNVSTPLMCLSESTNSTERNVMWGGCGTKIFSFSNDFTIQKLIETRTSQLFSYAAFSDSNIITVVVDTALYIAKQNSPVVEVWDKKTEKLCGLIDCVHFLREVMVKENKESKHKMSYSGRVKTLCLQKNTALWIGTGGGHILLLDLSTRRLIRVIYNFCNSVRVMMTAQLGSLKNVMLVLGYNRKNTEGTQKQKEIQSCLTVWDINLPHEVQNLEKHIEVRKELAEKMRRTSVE
T2 sequence (P49759 129-484 limits assumed): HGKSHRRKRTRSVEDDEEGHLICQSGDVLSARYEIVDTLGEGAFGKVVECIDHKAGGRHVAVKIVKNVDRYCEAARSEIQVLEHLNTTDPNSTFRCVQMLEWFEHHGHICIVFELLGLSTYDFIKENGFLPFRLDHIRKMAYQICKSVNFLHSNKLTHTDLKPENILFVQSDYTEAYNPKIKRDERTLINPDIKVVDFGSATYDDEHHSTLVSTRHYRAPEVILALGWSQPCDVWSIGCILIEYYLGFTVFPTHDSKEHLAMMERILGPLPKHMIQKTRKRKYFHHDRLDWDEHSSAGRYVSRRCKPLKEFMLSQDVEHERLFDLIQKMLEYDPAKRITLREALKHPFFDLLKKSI
Sequence of LRRK2 (G2019S) (Q5S007 970-2527 G2019S limits assumed): as the sequence (Q5S007 970-2527 limits assumed) above, with G1050S counted along it

SMILES | IC50 [1] | IC50 [2] | IC50 [3] | IC50 [5] | IC50 [7] | GI50 [8] | inhibition at 0.5 µM [4] | inhibition at 0.5 µM [6] | inhibition at 0.25 µM [9] | inhibition at 0.5 µM [9] | inhibition at 1 µM [9]
CNc1cc(Nc2ccc(C(=O)N3CCOCC3)c3c2OCO3)nc2[nH]cc(C(F)(F)F)c12 [Example 38, (7-((4-(methylamino)-3-(trifluoromethyl)-1H-pyrrolo[2,3-b]pyridin-6-yl)amino)benzo [d] [1,3]dioxol-4-yl)(morpholino) methanone] | < 100 nM | 101 to 300 nM | < 100 nM | < 100 nM | – | – | 32.8% | 36.1% | – | – | –
COCCNc1cc(Nc2ccc(C(=O)N3CCOCC3)c3c2OCC3)nc2[nH]cc(C(F)(F)F)c12 [Example 54, (7-((4-((2-methoxyethyl)amino)-3-(trifluoromethyl)-1H-pyrrolo[2,3-b]pyridin-6-yl)amino)-2,3-dihydrobenzofuran-4-yl)(morpholino) methanone] | < 100 nM | < 100 nM | < 100 nM | < 100 nM | – | – | – | 46.9% | – | – | –
COc1cc(P2(=O)CCN(C3CCOCC3)CC2)ccc1Nc1cc(C2CC2)c2c(C(F)(F)F)c[nH]c2n1 [Example 102, 4-(4-((4-cyclopropyl-3-(trifluoromethyl)-1H-pyrrolo[2,3-b]pyridin-6-yl)amino)-3-methoxyphenyl)-1-(tetrahydro-2H-pyran-4-yl)-1,4-azaphosphinane 4-oxide] | – | – | – | 301 to 1000 nM | < 100 nM | – | – | – | – | – | –
CS(=O)(=O)CCNc1cc(Nc2ccc(C(=O)N3CCOCC3)c3c2OCCO3)nc2[nH]cc(C(F)(F)F)c12 [Example 157, (8-((4-((2-(methylsulfonyl)ethyl)amino)-3-(trifluoromethyl)-1H-pyrrolo[2,3-b]pyridin-6-yl)amino)-2,3-dihydrobenzo [b] [1,4]dioxin-5-yl)(morpholino) methanone] | < 100 nM | < 100 nM | < 100 nM | < 100 nM | – | – | 31% | 29.1% | – | – | –
CNc1cc(Nc2ccc(P3(=O)CCN(C4COC4)CC3)cc2OC)nc2[nH]cc(C(F)(F)F)c12 [Example 212, 4-(3-methoxy-4-((4-(methylamino)-3-(trifluoromethyl)-1H-pyrrolo[2,3-b]pyridin-6-yl)amino)phenyl)-1-(oxetan-3-yl)-1,4-azaphosphinane 4-oxide] | < 100 nM | < 100 nM | – | < 100 nM | – | 301 to 1000 nM | 2.7% | 29.1% | – | – | –
CCNc1cc(Nc2ccc(C(=O)N3CC[C@@H](N4CCOCC4)C3)c3c2OCC3)nc2[nH]cc(C(F)(F)F)c12 [Example 213, (R)-(7-((4-(ethylamino)-3-(trifluoromethyl)-1H-pyrrolo[2,3-b]pyridin-6-yl)amino)-2,3-dihydrobenzofuran-4-yl)(3-morpholinopyrrolidin-1-yl)methanone] | 101 to 300 nM | 101 to 300 nM | 101 to 300 nM | < 100 nM | – | – | 2.6% | 3.9% | – | – | –

The next lines start with results.

IC50 [1] | IC50 [2] | IC50 [3] | IC50 [5] | IC50 [7] | GI50 [8] | SMILES | inhibition at 0.5 µM [4] | inhibition at 0.5 µM [6] | inhibition at 0.25 µM [9] | inhibition at 0.5 µM [9] | inhibition at 1 µM [9]
< 100 nM | < 100 nM | – | < 100 nM | – | – | CNc1cc(Nc2ccc(C(=O)N3CCC(N4CCOCC4)CC3)c3c2OCO3)nc2[nH]cc(C(F)(F)F)c12 [Example 235, (7-((4-(methylamino)-3-(trifluoromethyl)-1H-pyrrolo[2,3-b]pyridin-6-yl)amino)benzo[d][1,3]dioxol-4-yl)(4-morpholinopiperidin-1-yl)methanone] | 36.3% | 22.9% | – | – | –
< 100 nM | – | < 100 nM | < 100 nM | – | – | CCNc1cc(Nc2ccc(C(=O)N3CCC(N4CCN(C)CC4)CC3)c3c2OCC3)nc2[nH]cc(C(F)(F)F)c12 [Example 247, (7-((4-(ethylamino)-3-(trifluoromethyl)-1H-pyrrolo[2,3-b]pyridin-6-yl)amino)-2,3-dihydrobenzofuran-4-yl)(4-(4-methylpiperazin-1-yl)piperidin-1-yl)methanone] | 15.5% | 31.9% | 52.3% | 76.8% | 104%
< 100 nM | – | < 100 nM | < 100 nM | – | – | CCNc1cc(Nc2ccc(C(=O)N3CCC(N(C)C)CC3)c3c2OCC3)nc2[nH]cc(C(F)(F)F)c12 [Example 249, (4-(dimethylamino)piperidin-1-yl)(7-((4-(ethylamino)-3-(trifluoromethyl)-1H-pyrrolo[2,3-b]pyridin-6-yl)amino)-2,3-dihydrobenzofuran-4-yl)methanone] | 10.1% | 60.3% | 62.4% | 76.9% | 82.9%
< 100 nM | – | < 100 nM | < 100 nM | – | – | CCNc1cc(Nc2ccc(C(=O)N3CCN(CCO)CC3)c3c2OCC3)nc2[nH]cc(C(F)(F)F)c12 [Example 253, (7-((4-(ethylamino)-3-(trifluoromethyl)-1H-pyrrolo[2,3-b]pyridin-6-yl)amino)-2,3-dihydrobenzofuran-4-yl)(4-(2-hydroxyethyl)piperazin-1-yl)methanone] | 9.83% | 49.2% | – | – | –
< 100 nM | – | < 100 nM | < 100 nM | – | – | CCNc1cc(Nc2ccc(C(=O)N3CCN(CC4CC4)CC3)c3c2OCC3)nc2[nH]cc(C(F)(F)F)c12 [Example 257, (4-(cyclopropylmethyl)piperazin-1-yl)(7-((4-(ethylamino)-3-(trifluoromethyl)-1H-pyrrolo[2,3-b]pyridin-6-yl)amino)-2,3-dihydrobenzofuran-4-yl)methanone] | 7.88% | 44% | – | – | –
< 100 nM | – | < 100 nM | < 100 nM | – | – | CCNc1cc(Nc2ccc(C(=O)N3CCC(N4CCN(C5CC5)CC4)CC3)c3c2OCC3)nc2[nH]cc(C(F)(F)F)c12 [Example 264, (4-(4-cyclopropylpiperazin-1-yl)piperidin-1-yl)(7-((4-(ethylamino)-3-(trifluoromethyl)-1H-pyrrolo[2,3-b]pyridin-6-yl)amino)-2,3-dihydrobenzofuran-4-yl)methanone] | 11.2% | 45.5% | – | – | –
